In patent publication US20240208992A1, “MACROCYCLES AS CFTR MODULATORS” (Idorsia Pharmaceuticals Ltd, priority 2021, published 2024):

Target: human F508del-CFTR (Homo sapiens, UniProt P13569, DEL508-508)
Assay: F508del-CFTR cell surface expression (corrector activity), DiscoveRx ß-galactosidase complementation chemiluminescence assay in recombinant U2OS cell line;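 further: U2OS cells co-expressing ProLink-tagged F508del-CFTR and a membrane-anchored enzyme acceptor, where more surface CFTR restores β-galactosidase activity measured by chemiluminescence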
Conditions: for EC50: EC50, F508del-CFTR cell surface expression; for Emax: U2OS
[1] = U2OS cells, 16h compound incubation, geomean values
[2] = in relation to Emax of corrector lumacaftor (=100%), arithmetic mean values
[3] = U2OS cells, 16h compound incubation, geomean of several measurements
[4] = in relation to the Emax of the corrector lumacaftor (=100%), U2OS cells, 16h compound incubation, arithmetic mean
[5] = U2OS cell line, 16h compound incubation, geomean values
[6] = in relation to the Emax of the corrector lumacaftor (=100%), U2OS cell line, 16h compound incubation, arithmetic mean values

Chain of human F508del-CFTR (P13569 with tags, fused parts or gaps DEL508-508): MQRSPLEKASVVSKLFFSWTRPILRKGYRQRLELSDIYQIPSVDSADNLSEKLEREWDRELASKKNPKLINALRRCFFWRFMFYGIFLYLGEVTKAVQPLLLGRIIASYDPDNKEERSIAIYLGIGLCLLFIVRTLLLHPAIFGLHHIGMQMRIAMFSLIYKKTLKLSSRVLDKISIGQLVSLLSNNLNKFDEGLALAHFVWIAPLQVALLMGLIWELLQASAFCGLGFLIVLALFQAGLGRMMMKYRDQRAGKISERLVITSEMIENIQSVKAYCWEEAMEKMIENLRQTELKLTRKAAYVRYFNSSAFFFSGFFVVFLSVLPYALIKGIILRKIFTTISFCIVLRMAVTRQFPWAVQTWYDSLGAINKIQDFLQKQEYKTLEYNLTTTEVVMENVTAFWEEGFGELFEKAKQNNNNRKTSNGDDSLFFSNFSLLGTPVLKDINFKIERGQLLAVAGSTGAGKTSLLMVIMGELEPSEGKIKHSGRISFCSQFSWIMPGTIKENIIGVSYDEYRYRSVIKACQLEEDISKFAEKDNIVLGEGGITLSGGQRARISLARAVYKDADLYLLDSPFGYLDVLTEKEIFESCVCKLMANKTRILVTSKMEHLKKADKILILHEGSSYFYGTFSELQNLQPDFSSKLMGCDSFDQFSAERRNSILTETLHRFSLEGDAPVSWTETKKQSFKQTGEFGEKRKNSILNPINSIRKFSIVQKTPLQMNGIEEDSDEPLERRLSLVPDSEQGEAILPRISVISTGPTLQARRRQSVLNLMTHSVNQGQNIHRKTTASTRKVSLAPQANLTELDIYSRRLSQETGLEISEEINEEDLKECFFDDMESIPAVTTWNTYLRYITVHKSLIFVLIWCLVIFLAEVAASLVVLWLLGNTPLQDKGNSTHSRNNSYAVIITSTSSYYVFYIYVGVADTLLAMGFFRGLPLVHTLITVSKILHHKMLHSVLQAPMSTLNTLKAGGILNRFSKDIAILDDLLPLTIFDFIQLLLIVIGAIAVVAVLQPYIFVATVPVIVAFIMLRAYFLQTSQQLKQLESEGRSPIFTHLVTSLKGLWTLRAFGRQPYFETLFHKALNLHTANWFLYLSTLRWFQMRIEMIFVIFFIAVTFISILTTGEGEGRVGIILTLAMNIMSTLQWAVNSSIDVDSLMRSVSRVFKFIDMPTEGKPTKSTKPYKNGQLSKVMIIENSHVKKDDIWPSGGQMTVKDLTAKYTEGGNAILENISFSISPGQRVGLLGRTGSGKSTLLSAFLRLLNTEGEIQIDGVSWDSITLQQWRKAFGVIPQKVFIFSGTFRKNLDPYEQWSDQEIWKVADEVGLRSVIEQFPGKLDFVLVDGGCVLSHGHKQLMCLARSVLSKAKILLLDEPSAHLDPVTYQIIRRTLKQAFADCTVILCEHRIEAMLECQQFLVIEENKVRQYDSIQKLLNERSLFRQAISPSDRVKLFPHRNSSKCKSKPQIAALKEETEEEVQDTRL

Compound	EC50 [3] [nM]	Emax [4] [%]	also measured
CC(C)C[C@H]1C(=O)N2CCN(c3ccccc3)C[C@H]2C(=O)N[C@H](Cc2ccccc2)COc2cnc3ccc(F)cc3c2C(=O)N[C@H](C(=O)NCCc2cc(C3CC3)no2)CC(=O)N1C [Example 524, (9S,13S,19aR,22R)-22-benzyl-N-(2-(3-cyclopropylisoxazol-5-yl)ethyl)-5-fluoro-13-isobutyl-12-methyl-7,11,14,20-tetraoxo-18-phenyl-7,8,9,10,11,12,13,14,17,18,19,19a,20,21,22,23-hexadecahydro-16H-pyrazino[2′,11:6,7][1]oxa[4,7,10,14]tetraazacycloheptadecino[17,16-c]quinoline-9-carboxamide]	–	–	EC50 [1]: 60 nM; Emax [2]: 339%
COc1noc(CCNC(=O)[C@@H]2CC(=O)N(C)[C@@H](CC(C)C)C(=O)N3CCCC[C@@H]3C(=O)N[C@H](Cc3ccccc3)COc3ccc4ncc(F)cc4c3C(=O)N2)c1F [Example 973, (9S,13S,19aR,22R)-22-benzyl-5-fluoro-N-(2-(4-fluoro-3-methoxyisoxazol-5-yl)ethyl)-13-isobutyl-12-methyl-7,11,14,20-tetraoxo-7,8,9,10,11,12,13,14,17,18,19,19a,20,21,22,23-hexadecahydro-16H-pyrido[2′,1′:6,7][1]oxa[4,7,10,14]tetraazacycloheptadecino[16,17-f]quinoline-9-carboxamide]	117	446	–
COc1nccc2c1C(=O)N[C@H](C(=O)NCCc1noc(C3CC3)n1)CC(=O)N(C)[C@@H](CC(C)C)C(=O)N(C)[C@H](CCc1nc(C(C)(C)C)no1)C(=O)N[C@H](Cc1ccccc1)CO2 [Example 881, (3R,6R,9S,13S)-3-benzyl-6-(2-(3-(tert-butyl)-1,2,4-oxadiazol-5-yl)ethyl)-N-(2-(5-cyclopropyl-1,2,4-oxadiazol-3-yl)ethyl)-9-isobutyl-16-methoxy-7,10-dimethyl-5,8,11,15-tetraoxo-2,3,4,5,6,7,8,9,10,11,12,13,14,15-tetradecahydropyrido[3,4-p][1]oxa[4,7,10,14]tetraazacycloheptadecine-13-carboxamide]	309	337	–
Cc1cc2c3c(ccc2cn1)OC[C@@H](Cc1ccccc1)NC(=O)[C@@H](C)N(C)C(=O)[C@H](CC(C)C)N(C)C(=O)C[C@@H](C(=O)NCCc1nc(C2CC2)no1)NC3=O [Example 826, (3S,7S,10R,13R)-13-benzyl-N-(2-(3-cyclopropyl-1,2,4-oxadiazol-5-yl)ethyl)-7-isobutyl-6,9,10,20-tetramethyl-1,5,8,11-tetraoxo-1,2,3,4,5,6,7,8,9,10,11,12,13,14-tetradecahydro-[1]oxa[4,7,10,14]tetraazacycloheptadecino[16,17-f]isoquinoline-3-carboxamide]	283	340	–
COCCn1cc(CCNC(=O)[C@@H]2CC(=O)N(C)[C@@H](CC(C)C)C(=O)N(C)[C@H](Cc3nc(C(F)(F)F)no3)C(=O)N[C@H](Cc3ccccc3)COc3cc(C)nc(OC)c3C(=O)N2)cn1 [Example 961, (3R,6R,9S,13S)-3-benzyl-9-isobutyl-16-methoxy-N-(2-(1-(2-methoxyethyl)-1H-pyrazol-4-yl)ethyl)-7,10,18-trimethyl-5,8,11,15-tetraoxo-6-((3-(trifluoromethyl)-1,2,4-oxadiazol-5-yl)methyl)-2,3,4,5,6,7,8,9,10,11,12,13,14,15-tetradecahydropyrido[3,4-p][1]oxa[4,7,10,14]tetraazacycloheptadecine-13-carboxamide]	353	453	–
COc1cccc(CCNC(=O)[C@@H]2CC(=O)N(C)[C@@H](CC(C)C)C(=O)N(C)[C@H](C(C)(C)C)C(=O)N[C@H](Cc3ccccc3)COc3cc(C)nc(OC)c3C(=O)N2)c1 [Example 865, (3R,6R,9S,13S)-3-benzyl-6-(tert-butyl)-9-isobutyl-16-methoxy-N-(3-methoxyphenethyl)-7,10,18-trimethyl-5,8,11,15-tetraoxo-2,3,4,5,6,7,8,9,10,11,12,13,14,15-tetradecahydropyrido[3,4-p][1]oxa[4,7,10,14]tetraazacycloheptadecine-13-carboxamide]	103	356	–
Cc1cc(CCNC(=O)[C@@H]2CC(=O)N(C)[C@@H](CC(C)C)C(=O)N(C)[C@H](CC(F)F)C(=O)N[C@H](Cc3ccccc3)COc3ccc4ncc(F)cc4c3C(=O)N2)on1 [Example 946, (3S,7S,10R,13R)-13-benzyl-10-(2,2-difluoroethyl)-20-fluoro-7-isobutyl-6,9-dimethyl-N-(2-(3-methylisoxazol-5-yl)ethyl)-1,5,8,11-tetraoxo-1,2,3,4,5,6,7,8,9,10,11,12,13,14-tetradecahydro-[1]oxa[4,7,10,14]tetraazacycloheptadecino[16,17-f]quinoline-3-carboxamide]	447	404	–
COc1nc(C)cc2c1C(=O)N[C@H](C(=O)NCCc1cc(C(F)(F)F)no1)CC(=O)N(C)[C@@H](CC(C)C)C(=O)N1CCCC[C@@H]1C(=O)N[C@H](Cc1ccccc1)CO2 [Example 568, (7S,11S,17aR,20R)-20-benzyl-11-isobutyl-4-methoxy-2,10-dimethyl-5,9,12,18-tetraoxo-N-(2-(3-(trifluoromethyl)isoxazol-5-yl)ethyl)-5,6,7,8,9,10,11,12,15,16,17,17a,18,19,20,21-hexadecahydro-14H-dipyrido[2,1-f:3′,4′-p][1]oxa[4,7,10,14]tetraazacycloheptadecine-7-carboxamide]	–	–	EC50 [1]: 391 nM; Emax [2]: 238%
CC(C)C[C@H]1C(=O)N(CCC2CCCCC2)CC(=O)N[C@H](Cc2ccccc2)COc2ccc3ccccc3c2C(=O)N[C@H](C(=O)NCCc2ccc3c(c2)OCCC3)CC(=O)N1C [Example 599, (3S,7S,13R)-13-benzyl-N-(2-(chroman-7-yl)ethyl)-9-(2-cyclohexylethyl)-7-isobutyl-6-methyl-1,5,8,11-tetraoxo-1,2,3,4,5,6,7,8,9,10,11,12,13,14-tetradecahydronaphtho[1,2-p][1]oxa[4,7,10,14]tetraazacycloheptadecine-3-carboxamide]	–	–	EC50 [1]: 151 nM; Emax [2]: 299%
Cc1cc(CCNC(=O)[C@@H]2CC(=O)N(C)[C@@H](CC(C)C)C(=O)N(C)C3(CC3)C(=O)N[C@H](Cc3ccccc3)COc3cnc4ccccc4c3C(=O)N2)on1 [Example 434, (3′S,7′S,13′R)-13′-benzyl-7′-isobutyl-6′,9′-dimethyl-N-(2-(3-methylisoxazol-5-yl)ethyl)-1′,5′,8′,11′-tetraoxo-2′,3′,4′,5′,6′,7′,8′,9′,11′,12′,13′,14′-dodecahydro-1′H-spiro[cyclopropane-1,10′-[1]oxa[4,7,10,14]tetraazacycloheptadecino[17,16-c]quinoline]-3′-carboxamide]	–	–	EC50 [1]: 664 nM; Emax [2]: 327%
CC(C)C[C@H]1C(=O)N(CCCOCc2ccccc2)CC(=O)N[C@H](Cc2ccccc2)COc2cc3c(cc2C(=O)N[C@H](C(=O)NCCc2ccc4c(c2)OCO4)CC(=O)N1C)OCO3 (racemic) [Example 6, (7R,13S,17RS)-N-(2-(benzo[d][1,3]dioxol-5-yl)ethyl)-7-benzyl-11-(3-(benzyloxy)propyl)-13-isobutyl-14-methyl-9,12,15,19-tetraoxo-6,7,8,9,10,11,12,13,14,15,16,17,18,19-tetradecahydro-[1,3]dioxolo[4′,5′:4,5]benzo[1,2-p][1]oxa[4,7,10,14]tetraazacycloheptadecine-17-carboxamide]	–	–	EC50 [5]: 420 nM; Emax [6]: 112%
COc1noc(CCNC(=O)[C@@H]2CC(=O)N(C)[C@@H](CC(C)C)C(=O)N(C)[C@H](Cc3nc(C(F)(F)F)no3)C(=O)N[C@H](Cc3ccccc3)COc3ccnc(OC)c3C(=O)N2)n1 [Example 949, (3R,6R,9S,13S)-3-benzyl-9-isobutyl-16-methoxy-N-(2-(3-methoxy-1,2,4-oxadiazol-5-yl)ethyl)-7,10-dimethyl-5,8,11,15-tetraoxo-6-((3-(trifluoromethyl)-1,2,4-oxadiazol-5-yl)methyl)-2,3,4,5,6,7,8,9,10,11,12,13,14,15-tetradecahydropyrido[3,4-p][1]oxa[4,7,10,14]tetraazacycloheptadecine-13-carboxamide]	113	518	–
COc1cc2c(cc1OC)C(=O)N[C@H](C(=O)NCCc1ccc3c(c1)OCO3)CC(=O)N(C)[C@@H](CC1CC1)C(=O)N(CCC1CCCCC1)CC(=O)N[C@H](Cc1ccccc1)CO2 (racemic) [Example 9, (3R,9S,13RS)-N-(2-(benzo[d][1,3]dioxol-5-yl)ethyl)-3-benzyl-7-(2-cyclohexylethyl)-9-(cyclopropylmethyl)-17,18-dimethoxy-10-methyl-5,8,11,15-tetraoxo-2,3,4,5,6,7,8,9,10,11,12,13,14,15-tetradecahydrobenzo[p][1]oxa[4,7,10,14]tetraazacycloheptadecine-13-carboxamide]	–	–	EC50 [5]: 360 nM; Emax [6]: 130%
CC(C)C[C@H]1C(=O)N2CCCC[C@@H]2C(=O)N[C@H](Cc2ccccc2)COc2cnc3ccccc3c2C(=O)N[C@H](C(=O)NCCc2cnn(C3CC3)c2)CC(=O)N1C [Example 124, (9S,13S,19aR,22R)-22-benzyl-N-(2-(1-cyclopropyl-1H-pyrazol-4-yl)ethyl)-13-isobutyl-12-methyl-7,11,14,20-tetraoxo-7,8,9,10,11,12,13,14,17,18,19,19a,20,21,22,23-hexadecahydro-16H-pyrido[2′,1′:6,7][1]oxa[4,7,10,14]tetraazacycloheptadecino[17,16-c]quinoline-9-carboxamide]	–	–	EC50 [5]: 382 nM; Emax [6]: 347%
